Assay results: patent EP3409761B1, “CULTURE MEDIUM COMPOSITION, AND METHOD FOR CULTURING CELL OR TISSUE USING SAID COMPOSITION” (Nissan Chemical Corporation, priority 2012, dated 2014)

Columns and labels:
Assay type in all cases: cell-based
[1] = system: human cervical cancer cell line HeLa; assay: Cell proliferation test using various anticancer drugs; details: DAG 0.030% medium; for cell density: 5 days later
Experimental: This aqueous solution was sterilized at 121°C for 20 min in an autoclave. […] The anticancer drug used was Adriamycin (manufactured by WAKO), Paclitaxel (manufactured by WAKO) or Mitomycin C (manufactured by WAKO).
Successively, this plate was cultured by being stood still in a CO2 incubator (37°C, 5% CO2) for 7 days. After culturing for 3, 5, 7 days, to the culture medium was added a WST-8 solution (manufactured by DOJINDO Laboratories, 20 µL), and the mixture was incubated at 37°C for 100 min. The absorbance at 450 nm was measured by an absorbance spectrometer (manufactured by Molecular Devices, SPECTRA MAX 190), and the number of viable cells was measured by subtracting the absorbance of the medium alone. The culture medium containing the cells after 5 days of culture was stirred with a pipette and the obtained stirred solution (20 µL) was mixed with Trypan Blue stain 0.4% (manufactured by Invitrogen, 20 µL) and the cell density was measured under a microscope.

[2] = system: human cervical cancer cell line HeLa; assay: HeLa cell proliferation test using Trametinib and MK-2206; details: day 4 of the static culture
Experimental: (§1) This aqueous solution was sterilized at 121°C for 20 min in an autoclave. […] Each plate was cultured by being stood still in a CO2 incubator (37°C, 5% CO2). […] The anticancer drugs used were Trametinib (manufactured by Santa Cruz, MEK inhibitor) and MK-2206 (manufactured by Santa Cruz, Akt inhibitor). […]

[3] = system: human cervical cancer cell line HeLa; assay: Comparison with single layer culture method in cell proliferation test using anticancer drug; details: day 4
Experimental: This aqueous solution was sterilized at 121°C for 20 min in an autoclave. […] Each plate was cultured by being stood still in a CO2 incubator (37°C, 5% CO2). […] The anticancer drug used was Adriamycin (manufactured by WAKO), Paclitaxel (manufactured by WAKO) or Mitomycin C (manufactured by WAKO). To the culture medium on day 4 was added an ATP reagent (150 µL) (CellTiter-Glo (registered trade mark) Luminescent Cell Viability Assay, manufactured by Promega) to give a suspension, which was stood for about 10 min at room temperature, and the luminescence intensity (RLU value) was measured by FlexStation3 (manufactured by Molecular Devices), and the number of viable cells was measured by subtracting the luminescence value of the medium alone. For WST-8 measurement, a WST-8 solution (manufactured by DOJINDO Laboratories, 15 µL) was added, the mixture was incubated at 37°C for 100 min, the absorbance at 450 nm was measured by an absorbance spectrometer (manufactured by Molecular Devices, SPECTRA MAX 190), and the number of viable cells was measured by subtracting the absorbance of the medium alone.

[4] = system: human lung cancer cell line A549; assay: A549 cell proliferation test using Trametinib and MK-2206; details: day 4 of the static culture
Experimental: as §1

[5] = system: human lung cancer cell line A549; assay: Effect of Gefitinib on proliferation of A549 cell stimulated with human HB-EGF; details: DAG 0.015%, day 6
Experimental: This aqueous solution was sterilized at 121°C for 20 min in an autoclave. […] Each plate was cultured by being stood still in a CO2 incubator (37°C, 5% CO2). […] To the culture medium on day 6 was added an ATP reagent (150 µL) (CellTiter-Glo (registered trade mark) Luminescent Cell Viability Assay, manufactured by Promega) to give a suspension, which was stood for about 10 min at room temperature, and the luminescence intensity (RLU value) was measured by FlexStation3 (manufactured by Molecular Devices), and the number of viable cells was measured by subtracting the luminescence value of the medium alone.

[6] = drug 0.001 µM, deacylated gellan gum addition group (0.015%)
[7] = drug 0.001 µM, single layer culture group
[8] = drug 0.003 µM, deacylated gellan gum addition group (0.015%)
[9] = drug 0.003 µM, single layer culture group
[10] = drug 0.01 µM, deacylated gellan gum addition group (0.015%)
[11] = drug 0.01 µM, single layer culture group
[12] = drug 0.03 µM, deacylated gellan gum addition group (0.015%)
[13] = drug 0.03 µM, single layer culture group
[14] = drug 0.3 µM, deacylated gellan gum addition group (0.015%)
[15] = drug 0.3 µM, single layer culture group
[16] = drug 3 µM, deacylated gellan gum addition group (0.015%)
[17] = drug 3 µM, single layer culture group
[18] = drug 30 µM, deacylated gellan gum addition group (0.015%)
[19] = drug 30 µM, single layer culture group
[20] = drug 0.1 µM, deacylated gellan gum addition group (0.015%)
[21] = drug 0.1 µM, single layer culture group
[22] = drug 1 µM, deacylated gellan gum addition group (0.015%)
[23] = drug 1 µM, single layer culture group

In the case of `CC(=O)O[C@H]1C(=O)[C@@]2(C)[C@H]([C@H](OC(=O)c3ccccc3)[C@]3(O)C[C@H](OC(=O)[C@H](O)[C@@H](NC(=O)c4ccccc4)c4ccccc4)C(C)=C1C3(C)C)[C@]1(OC(C)=O)CO[C@@H]1C[C@@H]2O` [Paclitaxel], the cell density ([1]; drug 0.001 µM) is reported as 5.3 10^4 cells/mL, the “cell number (absorbance at 450 nm, WST-8)” value (shortened to “cell number”) ([1]; drug 0.001 µM, day 3) is reported as 0.276 and the “cell number” value ([1]; drug 0.001 µM, day 5) is reported as 0.223. For the same molecule, the “cell number” value ([1]; drug 0.001 µM, day 7) was 0.222, the cell density ([1]; drug 0.01 µM) was 1.6 10^4 cells/mL and the “cell number” value ([1]; drug 0.01 µM, day 3) was 0.019. For the same molecule, the “cell number” value ([1]; drug 0.01 µM, day 5) was < 0, the “cell number” value ([1]; drug 0.01 µM, day 7) was < 0 and the cell density ([1]; drug 0.1 µM) was 0.9 10^4 cells/mL. For the same molecule, the “cell number” value ([1]; drug 0.1 µM, day 3) was < 0, the “cell number” value ([1]; drug 0.1 µM, day 5) was < 0 and the “cell number” value ([1]; drug 0.1 µM, day 7) was < 0. For the same molecule, the cell density ([1]; drug 1 µM) was 0.2 10^4 cells/mL, the “cell number” value ([1]; drug 1 µM, day 3) was < 0 and the “cell number” value ([1]; drug 1 µM, day 5) was < 0. For the same molecule, the “cell number” value ([1]; drug 1 µM, day 7) was < 0, the “% Control value of the RLU value (ATP measurement)” value (from here on “% Control value of the RLU value”) [2, 6] was 104 % Control and the “% Control value of the RLU value” value [2, 7] was 89 % Control. For the same molecule, the “% Control value of the RLU value” value [2, 8] was 46 % Control, the “% Control value of the RLU value” value [2, 9] was 15 % Control and the “% Control value of the RLU value” value [2, 10] was 5 % Control. For the same molecule, the “% Control value of the RLU value” value [2, 11] was 2 % Control, the “% Control value of the RLU value” value [3, 6] was 107 % Control and the “% Control value of the absorbance at 450 nm (WST-8 measurement)” value (from here on “% Control value of the absorbance”) [3, 6] was 125 % Control. For the same molecule, the “% Control value of the RLU value” value [3, 7] was 95 % Control, the “% Control value of the absorbance” value [3, 7] was 99 % Control and the “% Control value of the RLU value” value [3, 8] was 34 % Control. For the same molecule, the “% Control value of the absorbance” value [3, 8] was 33 % Control, the “% Control value of the RLU value” value [3, 9] was 36 % Control and the “% Control value of the absorbance” value [3, 9] was 32 % Control. For the same molecule, the “% Control value of the RLU value” value [3, 10] was 18 % Control, the “% Control value of the absorbance” value [3, 10] was 5 % Control and the “% Control value of the RLU value” value [3, 11] was 10 % Control. For the same molecule, the “% Control value of the absorbance” value [3, 11] was 10 % Control, the “% Control value of the RLU value” value [3, 12] was 17 % Control and the “% Control value of the absorbance” value [3, 12] was 3 % Control. For the same molecule, the “% Control value of the RLU value” value [3, 13] was 4 % Control, the “% Control value of the absorbance” value [3, 13] was 5 % Control and the “% Control value of the RLU value” value [4, 6] was 93 % Control. For the same molecule, the “% Control value of the RLU value” value [4, 7] was 81 % Control, the “% Control value of the RLU value” value [4, 8] was 52 % Control and the “% Control value of the RLU value” value [4, 9] was 31 % Control. The “% Control value of the RLU value” value [4, 10] was 32 % Control and the “% Control value of the RLU value” value [4, 11] was 16 % Control.
In the case of `COc1cc2ncnc(Nc3ccc(F)c(Cl)c3)c2cc1OCCCN1CCOCC1` [Gefitinib], the “% Control value of the RLU value” value ([5]; 0.1 µM, HB-EGF 100 ng/ml) is reported as 91 % Control, the “% Control value of the RLU value” value ([5]; 0.1 µM, HB-EGF no addition) is reported as 89 % Control and the “% Control value of the RLU value” value ([5]; 0.3 µM, HB-EGF 100 ng/ml) is reported as 74 % Control. The “% Control value of the RLU value” value ([5]; 0.3 µM, HB-EGF no addition) was 84 % Control, the “% Control value of the RLU value” value ([5]; 1 µM, HB-EGF 100 ng/ml) was 59 % Control and the “% Control value of the RLU value” value ([5]; 1 µM, HB-EGF no addition) was 77 % Control. The “% Control value of the RLU value” value ([5]; 3 µM, HB-EGF 100 ng/ml) was 53 % Control and the “% Control value of the RLU value” value ([5]; 3 µM, HB-EGF no addition) was 69 % Control.
With `NC1(c2ccc(-c3nc4ccn5c(=O)[nH]nc5c4cc3-c3ccccc3)cc2)CCC1` [MK-2206] the “% Control value of the RLU value” value [2, 12] was 57 % Control, the “% Control value of the RLU value” value [2, 13] was 93 % Control and the “% Control value of the RLU value” value [2, 14] was 21 % Control. The “% Control value of the RLU value” value [2, 15] was 84 % Control, the “% Control value of the RLU value” value [2, 16] was 21 % Control and the “% Control value of the RLU value” value [2, 17] was 69 % Control. For the same molecule, the “% Control value of the RLU value” value [2, 18] was 0 % Control, the “% Control value of the RLU value” value [2, 19] was 0 % Control and the “% Control value of the RLU value” value [4, 12] was 84 % Control. The “% Control value of the RLU value” value [4, 13] was 93 % Control, the “% Control value of the RLU value” value [4, 14] was 45 % Control and the “% Control value of the RLU value” value [4, 15] was 79 % Control. The “% Control value of the RLU value” value [4, 16] was 21 % Control, the “% Control value of the RLU value” value [4, 17] was 53 % Control and the “% Control value of the RLU value” value [4, 18] was 0 % Control. For the same molecule, the “% Control value of the RLU value” value [4, 19] was 0 % Control.
In the case of `CC(=O)Nc1cccc(-n2c(=O)n(C3CC3)c(=O)c3c(Nc4ccc(I)cc4F)n(C)c(=O)c(C)c32)c1` [Trametinib], the “% Control value of the RLU value” value [2, 6] is reported as 73 % Control, the “% Control value of the RLU value” value [2, 7] is reported as 102 % Control and the “% Control value of the RLU value” value [2, 10] is reported as 12 % Control. The “% Control value of the RLU value” value [2, 11] was 93 % Control, the “% Control value of the RLU value” value [2, 20] was 1 % Control and the “% Control value of the RLU value” value [2, 21] was 20 % Control. The “% Control value of the RLU value” value [2, 22] was 1 % Control, the “% Control value of the RLU value” value [2, 23] was 3 % Control and the “% Control value of the RLU value” value [4, 6] was 72 % Control. The “% Control value of the RLU value” value [4, 7] was 71 % Control, the “% Control value of the RLU value” value [4, 10] was 35 % Control and the “% Control value of the RLU value” value [4, 11] was 37 % Control. The “% Control value of the RLU value” value [4, 20] was 2 % Control, the “% Control value of the RLU value” value [4, 21] was 5 % Control and the “% Control value of the RLU value” value [4, 22] was 0 % Control. For the same molecule, the “% Control value of the RLU value” value [4, 23] was 1 % Control.
